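Following 48 hours of exposure in 96-well plates, responses at five concentrations were used to interpolate endpoints linearly. Definition used: TGI = concentration required for complete inhibition of growth.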
Experiments:
Assay in all cases: NCI tumour cell line growth inhibition, 48 h
A498 renal = tested on: A498 renal
SF-539 CNS = tested on: SF-539 CNS
OVCAR-8 ovarian = tested on: OVCAR-8 ovarian
SNB-75 CNS = tested on: SNB-75 CNS
IGROV1 ovarian = tested on: IGROV1 ovarian
MDA-N = tested on: MDA-N
SW-620 colon = tested on: SW-620 colon
HT29 colon = tested on: HT29 colon
OVCAR-4 ovarian = tested on: OVCAR-4 ovarian
A549 NSCLC = tested on: A549 NSCLC
SR leukemia = tested on: SR leukemia
MALME-3M melanoma = tested on: MALME-3M melanoma
MOLT-4 leukemia = tested on: MOLT-4 leukemia
SK-MEL-28 melanoma = tested on: SK-MEL-28 melanoma
HOP-62 NSCLC = tested on: HOP-62 NSCLC
OVCAR-3 ovarian = tested on: OVCAR-3 ovarian
HL-60(TB) leukemia = tested on: HL-60(TB) leukemia
LOX IMVI melanoma = tested on: LOX IMVI melanoma
HCC-2998 colon = tested on: HCC-2998 colon
UACC-257 melanoma = tested on: UACC-257 melanoma
BT-549 breast = tested on: BT-549 breast
ACHN renal = tested on: ACHN renal
NCI-H23 lung = tested on: NCI-H23 lung
T-47D breast = tested on: T-47D breast
SF-295 CNS = tested on: SF-295 CNS
MCF7 breast = tested on: MCF7 breast
HOP-92 NSCLC = tested on: HOP-92 NSCLC
CAKI-1 renal = tested on: CAKI-1 renal
HCT-15 colon = tested on: HCT-15 colon
K-562 leukemia = tested on: K-562 leukemia
COLO 205 colon = tested on: COLO 205 colon
SF-268 CNS = tested on: SF-268 CNS
SK-MEL-2 melanoma = tested on: SK-MEL-2 melanoma
DU-145 prostate = tested on: DU-145 prostate
UACC-62 melanoma = tested on: UACC-62 melanoma
786-0 renal = tested on: 786-0 renal
M14 melanoma = tested on: M14 melanoma
RXF 393 renal = tested on: RXF 393 renal
PC-3 prostate = tested on: PC-3 prostate
SK-OV-3 ovarian = tested on: SK-OV-3 ovarian
HCT-116 colon = tested on: HCT-116 colon
EKVX NSCLC = tested on: EKVX NSCLC
UO-31 renal = tested on: UO-31 renal
MDA-MB-231 breast = tested on: MDA-MB-231 breast
U251 CNS = tested on: U251 CNS
HS 578T breast = tested on: HS 578T breast
NCI-H522 lung = tested on: NCI-H522 lung
NCI/ADR-RES ovarian = tested on: NCI/ADR-RES ovarian
OVCAR-5 ovarian = tested on: OVCAR-5 ovarian
SNB-19 CNS = tested on: SNB-19 CNS
NCI-H460 lung = tested on: NCI-H460 lung
SN12C renal = tested on: SN12C renal
NCI-H226 lung = tested on: NCI-H226 lung
SK-MEL-5 melanoma = tested on: SK-MEL-5 melanoma
TK-10 renal = tested on: TK-10 renal
RPMI-8226 leukemia = tested on: RPMI-8226 leukemia
MDA-MB-435 = tested on: MDA-MB-435
KM12 colon = tested on: KM12 colon

**Q.** Which results are given for `Nc1c2c(nc3cc(F)c(F)cc13)CCC2`?
**A.** TGI (A498 renal): 61.2 µM; TGI (SF-539 CNS): > 100 µM; TGI (OVCAR-8 ovarian): > 100 µM; TGI (SNB-75 CNS): > 100 µM; TGI (IGROV1 ovarian): > 100 µM; TGI (MDA-N): > 100 µM; TGI (SW-620 colon): > 100 µM; TGI (HT29 colon): > 100 µM; TGI (OVCAR-4 ovarian): > 100 µM; TGI (A549 NSCLC): > 100 µM; TGI (SR leukemia): > 100 µM; TGI (MALME-3M melanoma): > 100 µM; TGI (MOLT-4 leukemia): > 100 µM; TGI (SK-MEL-28 melanoma): > 100 µM; TGI (HOP-62 NSCLC): > 100 µM; TGI (OVCAR-3 ovarian): > 100 µM; TGI (HL-60(TB) leukemia): 10.1 µM; TGI (LOX IMVI melanoma): > 100 µM; TGI (HCC-2998 colon): 35.1 µM; TGI (UACC-257 melanoma): > 100 µM; TGI (BT-549 breast): > 100 µM; TGI (ACHN renal): > 100 µM; TGI (NCI-H23 lung): > 100 µM; TGI (T-47D breast): > 100 µM; TGI (SF-295 CNS): > 100 µM; TGI (MCF7 breast): > 100 µM; TGI (HOP-92 NSCLC): > 100 µM; TGI (CAKI-1 renal): > 100 µM; TGI (HCT-15 colon): > 100 µM; TGI (K-562 leukemia): > 100 µM; TGI (COLO 205 colon): > 100 µM; TGI (SF-268 CNS): > 100 µM; TGI (SK-MEL-2 melanoma): > 100 µM; TGI (DU-145 prostate): > 100 µM; TGI (UACC-62 melanoma): > 100 µM; TGI (786-0 renal): > 100 µM; TGI (M14 melanoma): > 100 µM; TGI (RXF 393 renal): > 100 µM; TGI (PC-3 prostate): > 100 µM; TGI (SK-OV-3 ovarian): > 100 µM; TGI (HCT-116 colon): > 100 µM; TGI (EKVX NSCLC): > 100 µM; TGI (UO-31 renal): 20.7 µM; TGI (MDA-MB-231 breast): > 100 µM; TGI (U251 CNS): > 100 µM; TGI (HS 578T breast): > 100 µM; TGI (NCI-H522 lung): > 100 µM; TGI (NCI/ADR-RES ovarian): > 100 µM; TGI (OVCAR-5 ovarian): > 100 µM; TGI (SNB-19 CNS): > 100 µM; TGI (NCI-H460 lung): 54 µM; TGI (SN12C renal): > 100 µM; TGI (NCI-H226 lung): > 100 µM; TGI (SK-MEL-5 melanoma): > 100 µM; TGI (TK-10 renal): 77.7 µM; TGI (RPMI-8226 leukemia): > 100 µM; TGI (MDA-MB-435): > 100 µM; TGI (KM12 colon): > 100 µM

**Q.** For `O=C(O)c1ccc(N=C(C(=Nc2ccc(C(=O)O)cc2)c2ccccc2)c2ccccc2)cc1`, which TGI (A498 renal) is on record?
**A.** > 100 µM

**Q.** What about the TGI (OVCAR-8 ovarian) of the same compound?
**A.** > 100 µM

**Q.** And the TGI (SNB-75 CNS)?
**A.** > 100 µM

**Q.** What about the TGI (IGROV1 ovarian) of the same compound?
**A.** > 100 µM

**Q.** What about the TGI (MDA-N) of the same compound?
**A.** > 100 µM

**Q.** What about the TGI (SW-620 colon) of the same compound?
**A.** > 100 µM

**Q.** And the TGI (OVCAR-4 ovarian)?
**A.** > 100 µM

**Q.** What about the TGI (A549 NSCLC) of the same compound?
**A.** > 100 µM

**Q.** And the TGI (SR leukemia)?
**A.** > 100 µM

**Q.** And the TGI (MOLT-4 leukemia)?
**A.** > 100 µM

**Q.** And the TGI (SK-MEL-28 melanoma)?
**A.** > 100 µM

**Q.** And the TGI (HOP-62 NSCLC)?
**A.** > 100 µM

**Q.** And the TGI (OVCAR-3 ovarian)?
**A.** > 100 µM

**Q.** What about the TGI (LOX IMVI melanoma) of the same compound?
**A.** > 100 µM

**Q.** And the TGI (HCC-2998 colon)?
**A.** > 100 µM

**Q.** And the TGI (UACC-257 melanoma)?
**A.** > 100 µM

**Q.** What about the TGI (BT-549 breast) of the same compound?
**A.** > 100 µM

**Q.** And the TGI (ACHN renal)?
**A.** > 100 µM

**Q.** And the TGI (NCI-H23 lung)?
**A.** > 100 µM

**Q.** What about the TGI (T-47D breast) of the same compound?
**A.** > 100 µM

**Q.** What about the TGI (SF-295 CNS) of the same compound?
**A.** > 100 µM

**Q.** And the TGI (MCF7 breast)?
**A.** > 100 µM

**Q.** And the TGI (HCT-15 colon)?
**A.** > 100 µM

**Q.** And the TGI (K-562 leukemia)?
**A.** > 100 µM

**Q.** What about the TGI (COLO 205 colon) of the same compound?
**A.** > 100 µM

**Q.** And the TGI (SF-268 CNS)?
**A.** > 100 µM

**Q.** And the TGI (SK-MEL-2 melanoma)?
**A.** > 100 µM

**Q.** And the TGI (DU-145 prostate)?
**A.** > 100 µM

**Q.** What about the TGI (UACC-62 melanoma) of the same compound?
**A.** > 100 µM

**Q.** What about the TGI (786-0 renal) of the same compound?
**A.** > 100 µM

**Q.** And the TGI (M14 melanoma)?
**A.** > 100 µM

**Q.** What about the TGI (RXF 393 renal) of the same compound?
**A.** > 100 µM

**Q.** And the TGI (PC-3 prostate)?
**A.** > 100 µM

**Q.** And the TGI (SK-OV-3 ovarian)?
**A.** > 100 µM

**Q.** And the TGI (HCT-116 colon)?
**A.** > 100 µM

**Q.** What about the TGI (EKVX NSCLC) of the same compound?
**A.** > 100 µM

**Q.** And the TGI (UO-31 renal)?
**A.** > 100 µM

**Q.** And the TGI (MDA-MB-231 breast)?
**A.** > 100 µM

**Q.** And the TGI (U251 CNS)?
**A.** > 100 µM

**Q.** What about the TGI (HS 578T breast) of the same compound?
**A.** > 100 µM

**Q.** What about the TGI (NCI/ADR-RES ovarian) of the same compound?
**A.** > 100 µM

**Q.** And the TGI (OVCAR-5 ovarian)?
**A.** > 100 µM

**Q.** What about the TGI (SNB-19 CNS) of the same compound?
**A.** > 100 µM

**Q.** What about the TGI (NCI-H460 lung) of the same compound?
**A.** > 100 µM

**Q.** What about the TGI (SN12C renal) of the same compound?
**A.** > 100 µM

**Q.** And the TGI (NCI-H226 lung)?
**A.** > 100 µM

**Q.** And the TGI (TK-10 renal)?
**A.** > 100 µM

**Q.** What about the TGI (RPMI-8226 leukemia) of the same compound?
**A.** > 100 µM

**Q.** What about the TGI (MDA-MB-435) of the same compound?
**A.** > 100 µM

**Q.** And the TGI (KM12 colon)?
**A.** > 100 µM
